#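 Interpolation was linear, between the two tested concentrations surrounding the appropriate level; five concentrations were tested over 48 hours in 96-well plates. GI50 = concentration required for 50% inhibition of growth. The concentration for full growth arrest is given as TGI.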
# Experiments:
# Assay in all cases: NCI-60 cell line screen, 48 h
# MDA-MB-435 = system: MDA-MB-435
# SN12C renal = system: SN12C renal
# RPMI-8226 leukemia = system: RPMI-8226 leukemia
# HCT-15 colon = system: HCT-15 colon
# M14 melanoma = system: M14 melanoma
# UO-31 renal = system: UO-31 renal
# SK-MEL-2 melanoma = system: SK-MEL-2 melanoma
# DU-145 prostate = system: DU-145 prostate
# BT-549 breast = system: BT-549 breast
# MOLT-4 leukemia = system: MOLT-4 leukemia
SMILES,TGI (MDA-MB-435) [µM],TGI (SN12C renal) [µM],TGI (RPMI-8226 leukemia) [µM],TGI (HCT-15 colon) [µM],TGI (M14 melanoma) [µM],TGI (UO-31 renal) [µM],TGI (SK-MEL-2 melanoma) [µM],TGI (DU-145 prostate) [µM],TGI (BT-549 breast) [µM],TGI (MOLT-4 leukemia) [µM],GI50 (MDA-MB-435) [µM],GI50 (SN12C renal) [µM],GI50 (RPMI-8226 leukemia) [µM],GI50 (HCT-15 colon) [µM],GI50 (M14 melanoma) [µM],GI50 (UO-31 renal) [µM],GI50 (SK-MEL-2 melanoma) [µM],GI50 (DU-145 prostate) [µM],GI50 (BT-549 breast) [µM],GI50 (MOLT-4 leukemia) [µM]
O=C(O)C1CC2(C1)CC(C(=O)O)C2 (stereo not given),> 100,> 100,> 100,> 100,> 100,> 100,> 100,> 100,> 100,> 100,,,,,,,,,,
S=C(Nc1ccc(N=Nc2ccccc2)cc1)SCc1ccccc1,36.4,29.2,33.3,28.3,37.6,34.9,50,29.6,40.3,27.9,,,,,,,,,,
CCN(Cc1ccc(F)cc1)c1ccc(CO)c(C)c1,45.5,> 82.6,37.1,39.4,37.6,25.1,22.8,59.2,24.5,58.8,18,19.3,6.69,8.86,14.3,9.34,7.58,21.1,5.15,15.5
Cc1cc(S(=O)(=O)/N=C/N(C)C)c(SC(=O)c2ccc(Cl)cc2)cc1Cl,70.4,79.8,80.6,37,> 100,> 100,> 100,> 100,50.4,> 100,25.1,26.8,25.4,19.2,89.8,> 100,45.8,19.1,18.7,61
CCCCCCNC(=O)Oc1ccc(/C(=C(/C)Cc2ccc(OC)cc2)c2ccc(OCCCN(C)C)cc2)cc1,27.1,28.3,35,21.9,26.1,23.2,34,31.3,30.3,28.2,13.8,14.7,15.9,8.71,12.3,10.9,18.5,16.8,15.6,12.3
Cc1ccc(C(NC(=O)c2ccccc2)c2ccc3cccnc3c2O)cc1 (stereo not given),23.4,48.7,17.8,> 91.2,2.38,1.19,10.3,41.9,> 40.6,> 70.2,0.491,0.451,0.323,0.24,0.244,0.198,0.608,0.442,0.524,0.332
COC(=O)C1OC2(CCCC3CC32)O[C@H]1C(=O)OC (stereo not given in full),> 100,> 100,> 100,> 100,> 100,> 100,> 100,> 100,> 100,> 100,,,,,,,,,,
N#Cc1c(Br)n(C2OC(CO)C(O)C2O)c2ncnc(N)c12 (stereo not given),> 46.2,> 100,6.69,46.3,17.8,59.5,14.1,23.9,15,7.02,1.24,2.69,1.26,0.695,2.18,2.25,5.3,0.844,1.58,0.723
CC1=CC(=O)C(C(C)C)=CC1=Nc1cc(Br)c(O)c(Br)c1,6.13,18.3,27.5,21.1,7.52,33.1,30.1,11.7,5.64,23.4,2.1,5.56,4.51,3.85,2.52,8.22,8.94,3.58,1.69,4.53
Cc1cn(C2C=CC(CO)O2)c(=O)[nH]c1=O (stereo not given),> 1000,> 1000,> 1000,> 1000,> 1000,> 1000,> 1000,> 1000,> 1000,> 1000,,,,,,,,,,
Nc1cc(O)ccc1N=Nc1ccc(-c2nc3ccccc3[nH]2)cc1,73.5,> 100,94.6,> 100,> 100,> 100,> 100,> 100,> 100,> 100,17.1,53.5,30.2,37.2,> 100,30.5,45.1,> 100,> 100,> 100
Cn1nc(-c2ccc(Cl)cc2)nc2c(=O)n(C)c(=O)nc1-2,0.405,1.45,2.23,1.53,1.41,6.56,9.29,1.63,1.94,3.22,0.137,0.706,0.886,0.766,0.75,1.53,1.5,0.89,0.968,1.13
O=[N+]([O-])c1ccc(Oc2nc(Nc3ccc(O[C@H]4CO[C@H]5[C@@H]4OC[C@@H]5O)c(Cl)c3)ncc2F)c(Cl)c1,3.5,6.78,2.56,10.7,1.93,4.81,2.04,5.45,3.36,4.82,1.2,1.34,0.61,2.37,0.565,1.6,0.483,0.917,1.29,1.27
CCN1C(=O)CCCc2c1ccc(Nc1ncc(Cl)c(NC3[C@@H](C(N)=O)[C@@H]4C=C[C@H]3C4)n1)c2OC (stereo not given in full),9.85,57.8,4.26,> 20.5,2.32,4.07,3.79,14.6,17.4,11.3,0.917,2.53,0.976,0.563,0.77,0.809,1.44,1.81,3.61,1.41
COc1ccc(S(=O)(=O)NC2=NCCN2C(=S)SN2CCn3c2nsc3=S)cc1,43.9,40,63.1,58.9,31,3.41,51.3,31.9,23.5,> 100,14.8,18.2,14,20.8,14.9,1.61,17.6,13.5,10.4,29.4
O=C(O)c1cn(C2CC2)c2cc(N3CCN(C(=O)Nc4nc(-c5ccccc5)cs4)CC3)c(F)cc2c1=O,> 100,> 100,7.41,> 100,> 100,> 100,6.42,15.8,10.4,11.5,1.16,0.774,0.826,2.27,2.06,0.876,1.85,1.05,0.473,1.61
Oc1ccc(-c2nc3ccc4[nH]ncc4c3c3c2CCCC3)c(F)c1,10.9,12.5,10.7,11.3,12,8.35,2.93,13.2,8.87,8.88,1.75,2.99,1.8,2.26,1.07,2.6,1.01,2.89,1.73,1.91

# — PubChem BioAssay (NCI)
